Where “and” joins values, the source holds several entries; their conditions need not be identical. Identical values can stand only once.
Tests used:
ADJ-PC6 Plasmacytoma = ADJ-PC6 Plasmacytoma implanted sc in BALB/c female mice; assay type: in vivo, mouse
Procedure: Likewise, Compound No. 1 from Table A was tested in an additional in vivo tumor model known as ADJ-PC6 Plasmacytoma. In this assay, tumor cells are carried by serial sc passage in BALB/c female mice and then collected aseptically on ca. day 21 and minced in Hank's balanced salt solution. The cells are then dispersed by homogenization in a loose-fitting teflon glass homogenizer, and cell concentration is adjusted to 4×10^6 viable ([…]) cells per ml by hemocytometer counts. A total of 0.5 ml (2×10^6 cells) is implanted sc on the right flank of BALB/c female mice in groups of 8. Treatment is given ip on Days 1-10, and tumors are measured in perpendicular diameters with a vernier caliper on Day 18. Tumor volume is calculated by multiplying length×width^2×0.5. Generally, ≥75% inhibition of tumor growth reflects significant antitumor effect.

[1] = system: mammary adenocarcinoma 16/c; details: general statement on the positive control; cited from earlier work
[2] = system: mammary adenocarcinoma 16/c; assay: mammary adenocarcinoma 16/c implanted sc in C3H mice; assay type: in vivo, mouse; details: ip, q4D × 5
Procedure: Compound No. 1 from Table A was also tested in a further in vivo tumor model, mammary adenocarcinoma 16/c, a tumor model sensitive to DNA binders and alkylating agents. In this experiment, the tumor was implanted sc in C3H mice, and the drug was administered ip or iv on an intermittant treatment schedule, i.e., once on days 1, 5, 9, 13 and 17. Tumors were measured 3 weeks after implantation, and activity was assessed by degree of tumor growth inhibition.

[3] = system: P388 lymphocytic leukemia; assay: in vivo ip P388 leukemia mouse model; details: for ILS relative to cisplatin / activity in the P388 leukemia assay: ip P388, in words; for ILS (Max), maximum increase in lifespan: mice bearing ip P388 leukemia, ip days 1-5, slash-separated figures are separate experiments
Description: P388 lymphocytic leukemia is currently the most widely used animal tumor model for screening for antitumor agents and for detailed evaluation of active compounds. This tumor system is widely accepted as an antitumor agent screening tool because it is sensitive to virtually all of the clinically active antineoplastic agents; quantitative and reproducible; amenable for large-scale screening; and predictive for activity in other animal tumor models.
10^6 P388 leukemia cells are inoculated ip in B6D2F1 mice. Twenty-four hours later, if the tumor inoculum proves to be free of bacterial contamination (as determined by 24 hours incubation in thioglycollate broth), animals are randomized into groups of 6 and housed in shoebox cages. […] An equal volume of saline is added; if the drug comes out of solution an equal volume of polyethoxylated castor oil is added and then saline qs to a concentration such that the desired dose is delivered in 0.5 ml. The final concentration of DMA, ethanol and polyethoxylated castor oil is 10 percent. Dilutions for lower doses are made with saline so there is a decreasing proportion of organic solvents in the vehicle with decreasing dosage. These vehicles provide soluble formulations (or suspensions). Formulations are prepared immediately prior to injection. The compound is administered ip on Days 1 through 5 (i.e. treatment is initiated 24 hrs after tumor inoculation). Each experiment includes three groups of 6 animals as untreated controls and animals treated with a positive control, cisplatin, at two dose levels. Animals are weighed as a group on Days 1, 5 and 9 and average weight change (Δwt.) is used as a reflection of toxicity. Each experiment also includes an inoculum titration--groups of 8 mice inoculated ip with 10^5 to 10° P388 leukemia cells. The titration is used to calculate cell kill achieved by treatment with drugs. Animals are monitored daily for mortality and experiments are terminated after 45 days. The endpoint is median survival time (MST) and increase in lifespan (ILS) which is the percentage of increase in MST relative to untreated controls. Untreated controls inoculated ip with 10^6 P388 leukemia cells generally survive for a median of 10 or 11 days. A drug is considered active if it produces ≥25 percent ILS.

B16 melanoma = assay: in vivo ip B16 melanoma in mice; design: species or system mouse
Procedure: In this system, groups of eight B6D2F1 mice are inoculated ip with 0.5 ml of a 10% (w:v) brei of B16 melanoma prepared from pooled sc tumors excised at 14-21 days from […] donor mice. Daily treatment is begun 24 hours after tumor implantation and is continued daily for ten (10) days. The route of drug administration is ip. The mice are monitored daily for survival for sixty (60) days. Antitumor activity is assessed by prolongation of median survival time. An ILS of ≥25% indicates activity in this tumor model.
Similarly, in another additional in vivo tumor model, namely B16 melanoma in mice, Compound No. 1 from Table A, administered ip in a dosage schedule of 8, 4, 2, 1 and 0.5 mg/kg produced an average increase in lifespan (ILS) of 32% at a maximally tolerated dose (MTD) of 3.4 μM/kg.

[4] = system: M5076 reticulum cell sarcoma; assay: ip implanted M5076 reticulum cell sarcoma in mice; assay type: in vivo, mouse; details: mice bearing ip M5076; ip qD × 10; slash-separated figures are separate experiments
Procedure: Another chemosensitive tumor model is intraperitoneally (ip) implanted M5076 reticulum cell sarcoma in mice. In this system B6D2F female mice are inoculated with 0.5 ml of a 10 percent (w:v) brei of M5076 prepared from pooled subcutaneous (sc) tumors excised at about 21 days from C57B1/6 donors. Drugs are administered ip. Daily treatement is begun 24 hours after implantation and is continued for ten days. The treatment regimen for M5076 is more prolonged than for P388 because of the slower growth rate and longer control survival time of the M5076 tumor. The antitumor activity of Compounds No. 1 and No. 2 of Table A in the M5076 reticulum cell sarcoma tumor model is set forth in Table 2.

B16 melanoma cells = assay: B16 mouse melanoma cell clonogenic cytotoxicity assay in vitro, two hour exposure; assay type: cell-based; details: B16 cloning efficiency; 2 hour exposure; 10% fetal calf serum
Procedure: The B16 mouse melanoma cell assay measures the ability of a compound to inhibit the clonogenic capacity of cells in vitro following a two hour exposure to the compound.
B16 melanoma (highly metastatic subline, F10) are used and maintained as monolayer cultures in Minimal Essential Media (Grand Island Biological Co., Grand Island, N.Y.) supplemented with 10% calf serum, 1% antibiotics in a 5% CO2 humidified incubator at 37° C. Asynchronous populations of cells are harvested and replated to 5000 cells/plate in sterile 60 mm×15 mm petri plates. Plates are incubated overnight to allow attachment of the cells to the plate. Cells are treated with the compound to be evaluated under sterile conditions, allowed to react for 2 hours followed by aspiration of medium. Plates are washed one time with 5 ml of phosphate buffered saline (PBS), followed by the addition of 5 ml of fresh media. […] Viability is measured by the ability of a cell to form a colony of greater than 50 cells. […] Plates are dried and counted with a Biotran III Automatic Count Totalized (New Brunswick Scientific Co., Edison, N.J.). Mean and standard deviation of triplicate samples are determined for each drug concentration. The data are analyzed by plotting the log of the survival fraction (number of colonies in drug treated plates/number of colonies in controls) versus the drug concentration. […]

[5] = system: HT-29 human colon carcinoma cells; assay: HT-29 human colon carcinoma cell kill in vitro, 2 hour exposure; assay type: cell-based; details: +FCS
Procedure: Additionally, in another in vitro assay, Compound No. 1 effectively killed HT-29 human colon carcinoma cells, with an IC50 (+FCS) of 5 μM following a 2 hour exposure.

P388 leukemia = details: cited from earlier work
[6] = Dumas et al., JP 58,192,893; cited from earlier work

Molecule: N.N.[Cl][Pt][Cl] [Cisplatin, cisplatin]
- tumor growth inhibition (ADJ-PC6 Plasmacytoma; positive control, in words): complete tumor growth inhibition
- inhibition of the growth of mammary adenocarcinoma 16/c [1]: complete inhibition
- Inhibition ([2]; Experiment 1, 6 mg/kg): 97%
- Mean Tumor Volume on Day 21 ([2]; Experiment 1, 6 mg/kg): 30 ± 64 mm^3
- N.P., proportion of mice without palpable tumors on Day 21 ([2]; Experiment 1, 6 mg/kg): 6/8
- Inhibition ([2]; Experiment 2, 6 mg/kg): 100% and 98%
- N.P., proportion of mice without palpable tumors on Day 21 ([2]; Experiment 2, 6 mg/kg): 8/8 and 7/8
- Inhibition ([2]; Experiment 2, 8 mg/kg): 36%
- Mean Tumor Volume on Day 21 ([2]; Experiment 2, 8 mg/kg): 711 ± 268 mm^3
- N.P., proportion of mice without palpable tumors on Day 21 ([2]; Experiment 2, 8 mg/kg): 0/7

Molecule: OCC1OC([S][Au])C(O)C(O)C1O.OCC1OC([S][Au])C(O)C(O)C1O.c1ccc(P(CCP(c2ccccc2)c2ccccc2)c2ccccc2)cc1 [Compound No. 1]
- ILS relative to cisplatin [3]: comparable to the clinically useful antitumor agent cisplatin
- activity in the P388 leukemia assay [3]: particularly good activity
- ILS (Max), maximum increase in lifespan [3]: 86 ± 8%
- average increase in lifespan (ILS) (B16 melanoma; B16 melanoma in mice, ip 8, 4, 2, 1 and 0.5 mg/kg, at MTD of 3.4 μM/kg): 32%
- ILS, maximum increase in lifespan (B16 melanoma; mice bearing ip B16 melanoma, ip qD × 10, slash-separated figures are separate experiments): 37% and 26%
- ILS (MAX), maximum increase in lifespan [4]: 45% and 65%
- % Inhibition of tumor growth (Day 18) (ADJ-PC6 Plasmacytoma; 3 mg/kg/day × 10, ip): 50%
- MTV, mean tumor volume on Day 18 (ADJ-PC6 Plasmacytoma; 3 mg/kg/day × 10, ip): 295 ± 163 mm^3
- N.P., proportion of mice without palpable tumor on Day 18 (ADJ-PC6 Plasmacytoma; 3 mg/kg/day × 10, ip): 0/8
- % Inhibition of tumor growth (Day 18) (ADJ-PC6 Plasmacytoma; 6 mg/kg/day × 10, ip): 98%
- MTV, mean tumor volume on Day 18 (ADJ-PC6 Plasmacytoma; 6 mg/kg/day × 10, ip): 11 ± 28 mm^3
- N.P., proportion of mice without palpable tumor on Day 18 (ADJ-PC6 Plasmacytoma; 6 mg/kg/day × 10, ip): 6/7
- inhibition of ADJPC6 Plasmacytoma (ADJ-PC6 Plasmacytoma; another experiment, same dose (6 mg/kg/day × 10, ip) and schedule): 23%
- IC50 (B16 melanoma cells): 1000 ± 200 nM
- Inhibition ([2]; Experiment 1, 12 mg/kg): 96%
- Mean Tumor Volume on Day 21 ([2]; Experiment 1, 12 mg/kg): 42 ± 60 mm^3
- N.P., proportion of mice without palpable tumors on Day 21 ([2]; Experiment 1, 12 mg/kg): 3/5
- IC50 [5]: 5000 nM

Molecule: CC(=O)OC[C@H]1O[C@@H]([S-])[C@H](OC(C)=O)[C@@H](OC(C)=O)[C@@H]1OC(C)=O.CCP(CC)CC.[Au+] [auranofin]
- activity in an intraperitoneal P388 leukemia tumor model (P388 leukemia; Mirabelli et al. 1984): respectable activity
- antitumor effects in animals bearing P388 leukemia (P388 leukemia; Simon et al. 1981, Mirabelli et al. 1985): significant antitumor effects

Molecule: CC[PH](CC)(CC)[Au][Se]C1OC(COC(C)=O)C(OC(C)=O)C(OC(C)=O)C1OC(C)=O (stereo not shown) [selenium analog of auranofin]
- antiarthritic utility [6]: antiarthritic agents

Molecule: μ-1,2-Bis(Diphenylphosphino)Ethane]Bis[(1-Thio-β-D-Galactopyranosato-S)Gold(I)] [compound 4]
- ILS (Max), maximum increase in lifespan [3]: 85% and 100% and 147%
- ILS (MAX), maximum increase in lifespan [4]: 37%

Molecule: μ-8 1,2-Bis(Diphenylphosphino)Ethane]Bis[(2,3,4,6-Tetra-O-Acetyl-1-Thio-α-D-Mannopyranosato-S)Gold(I)] [compound 3]
- ILS relative to cisplatin [3]: comparable to the clinically useful antitumor agent cisplatin
- activity in the P388 leukemia assay [3]: particularly good activity
- ILS (Max), maximum increase in lifespan [3]: 30% and 25%

Molecule: μ-[1,2-Bis(Diphenylphosphino)Ethane]-bis [compound 8, μ-[1,2-Bis(Diphenylphosphino)Ethane]-bis [1-Thio-D-Ribofuranosato-S)Gold(I)]]
- ILS (Max), maximum increase in lifespan [3]: 50% and 56%

Molecule: μ-[1,2-Bis(diphenylphosphino)ethane]-bis[1-seleno-β-D-glucopyranosato-se)gold(I)] [compound 7]
- ILS (Max), maximum increase in lifespan [3]: 36% and 27%
- ILS (MAX), maximum increase in lifespan [4]: 46%

Molecule: μ-[1,2-Bis(diphenylphosphino)ethane]bis[1,thio-α-D-mannopyranosato-S)gold(I)] [compound 5]
- ILS (Max), maximum increase in lifespan [3]: 90% and 74%

Molecule: μ-[1,2-Bis(diphenylphosphino)ethane]bis[2,3,4,6-tetra-O-acetyl-1-thio-β-D-glucopyranosato-S)gold(I)] [compound 2]
- ILS relative to cisplatin [3]: comparable to the clinically useful antitumor agent cisplatin
- activity in the P388 leukemia assay [3]: particularly good activity
- ILS (Max), maximum increase in lifespan [3]: 95%
- ILS (MAX), maximum increase in lifespan [4]: 67%

Molecule: μ-[1,3-Bis(diphenylphosphino)propane]bis[1-thio-β-D-glucopyranosato-S)gold(I)] [compound 6]
- ILS (Max), maximum increase in lifespan [3]: 28% and 56% and 41%
- ILS (MAX), maximum increase in lifespan [4]: 35%

Reference: patent US4645756A, “[α,ω-bis(diphenylphosphino)hydrocarbon]bis[(thiosugar)gold] and bis[(selenosugar)gold] derivatives, pharmaceutical compositions and method of use” (priority 1985, dated 1987)
